Assay [1] addresses T1, βAR kinase (Bos taurus, UniProt P21146).
T1 construct: βAR kinase was purified from bovine cerebral cortex; from tissue; host or cells: bovine cerebral cortex
T1 sequence (P21146 1-689): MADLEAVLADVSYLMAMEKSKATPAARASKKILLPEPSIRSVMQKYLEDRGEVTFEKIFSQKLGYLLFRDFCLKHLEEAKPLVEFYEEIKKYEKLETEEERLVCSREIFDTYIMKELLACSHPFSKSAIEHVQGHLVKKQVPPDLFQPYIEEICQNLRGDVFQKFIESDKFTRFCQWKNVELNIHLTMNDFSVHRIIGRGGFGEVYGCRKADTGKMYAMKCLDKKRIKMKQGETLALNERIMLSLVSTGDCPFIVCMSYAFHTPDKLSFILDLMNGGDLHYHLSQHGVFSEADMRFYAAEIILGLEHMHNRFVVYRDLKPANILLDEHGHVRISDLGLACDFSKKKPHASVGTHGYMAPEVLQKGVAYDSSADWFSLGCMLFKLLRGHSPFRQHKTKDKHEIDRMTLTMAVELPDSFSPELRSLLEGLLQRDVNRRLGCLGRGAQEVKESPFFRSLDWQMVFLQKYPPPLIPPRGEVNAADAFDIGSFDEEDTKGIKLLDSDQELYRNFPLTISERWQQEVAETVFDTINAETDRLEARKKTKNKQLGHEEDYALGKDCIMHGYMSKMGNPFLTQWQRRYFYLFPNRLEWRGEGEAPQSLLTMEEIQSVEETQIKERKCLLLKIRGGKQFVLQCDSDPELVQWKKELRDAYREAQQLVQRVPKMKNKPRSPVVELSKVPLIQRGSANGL
The assay is described as follows: Phosphorylation of purified reconstituted β2ARs by purified βAR kinase (Example II). Type of assay: biochemical, bovine. As to conditions: 100 μM. On the procedure:
FIG. 7. […] (Inset) Relevant section of a representative autoradiogram. Data are means±SEM of three independent experiments. […] Desensitization was measured as the percent loss of stimulation by 10 μM (−)-isoproterenol of adenylyl cyclase activity in membranes. […] Data are means±SEM of four independent experiments.
Purified β2ARs were inserted into phosphatidylcholine vesicles by chromatography on Extracti-gel, followed by polyethylene glycol treatment and centrifugation at 280,000×g for 90 min (Cerione et al (1984) Biochemistry 23:4519-4525). Phosphorylation of the reconstituted receptors by purified βAR kinase was done in the presence of 50 μM (−)-isoproterenol as described (Benovic et al (1987) J. Biol. Chem. 262:9026-9032). Subsequently, the samples were subjected to sodium dodecyl sulfate polyacrylamide gel electrophoresis on 10% gels (Laemmli (1970) Nature 227:680-685). The phosphorylated β2ARs were visualized by autoradiography, and the corresponding bands were cut out and their content of ^32P quantified.

Assay [2] deals with β2ARs in permeabilized A431 cells. Briefly: Desensitization of β2ARs in permeabilized A431 cells. Type of assay: cell-based, human. As to conditions: 100 μM. The method, then:
Permeabilization of cells was accomplished as follows. Human epidermoid carcinoma A431 cells were grown to about 95% confluence in Dulbecco's modified Eagle's medium supplemented with 10% fetal calf serum. Cells were harvested with collagenase, washed three times with calcium-free phosphate-buffered saline (PBS), then washed twice in 150 mM potassium glutamate/10 mM Hepes/5 mM EGTA/7 mM MgCl2, pH 7.1 (KG buffer), and finally resuspended in KG buffer supplemented with 5 mM glucose and 2 mM ATP (KG-A buffer) at a density of 4×10^7 cells per ml.
At 4×10^7 cells per ml, about 0.015% digitonin was necessary to achieve permeabilization of >95% cells as assessed by staining with trypan blue. In all experiments, digitonin was added stepwise until >95% of the cells were trypan blue positive.

For assay [3], the target named is T1, βAR kinase. Briefly: Inhibition of β2AR phosphorylation by βAR kinase by synthetic peptides (Example III). Type of assay: biochemical, bovine. On the procedure: FIG. 13. Inhibition of β2AR phosphorylation by synthetic peptides. Reconstituted β2AR (˜0.4 pmol) was incubated for 30 min at 30° with purified βAR kinase (˜30 ng) in the presence of 50 mM Tris-HCl, pH 7.5, 2 mM EDTA, 10 mM NaCl, 5 mM MgCl2, 5 mM sodium phosphate, 50 μM (−)-isoproterenol and 0.10 mM [γ^32P]ATP (2.0 cpm/fmol). Synthetic β2AR peptides were varied from 0 to 1 mM and included CI (Δ), CII (▴), CIII-2 (◯) and CT-1 (●). Reactions were stopped by the addition of […]. ^32P-labeled receptor was determined by cutting and counting the dried gel following autoradiography.
The β2-adrenergic receptor from hamster lung was purified to apparent homogeneity by sequential affinity and high performance liquid chromatography as described (Benovic et al (1984) Biochemistry 23:4510-4518). The purified receptor was reinserted into phosphatidylcholine vesicles as previously described (Cerione et al (1983) Nature 306:562-566). The protein-lipid pellets were resuspended in 20 mM Tris-HCl, pH 7.2, 2 mM EDTA and used as a substrate for the βAR kinase.
(§1) βAR kinase was purified from bovine cerebral cortex by modification of a previously described procedure (Benovic et al (1987) J. Biol. Chem. 262:9026-9032). Briefly, 250 g of bovine cortex was homogenized and the resulting high speed supernatant fraction was precipitated with 13-26% ammonium sulfate. This material was initially chromatographed on an Ultrogel AcA34 column equilibrated with 5 mM Tris-HCl, pH 7.5, 2 mM EDTA, 5 μg/ml leupeptin, 5 μg/ml pepstatin, 15 μg/ml benzamidine, 0.2 mM phenylmethyl sulfonyl fluoride (buffer A). The peak activity was diluted 1:1 with buffer A containing 0.02% triton X-100 and applied to a DEAE Sephacel column. Elution was accomplished with a 0-80 mM NaCl gradient in buffer A containing triton X-100. The peak activity was then applied directly to a CM Fractogel column and eluted with a 0-100 mM NaCl gradient in buffer A containing triton X-100. The purified kinase was stored at 4° C.
The inhibition of substrate phosphorylation by βAR kinase in the presence of synthetic peptides was assayed as follows. Reconstituted βAR (0.2-1 pmol/inclubation) was incubated with βAR kinase (10-30 ng) in a buffer containing 50 mM Tris-HCl, pH 7.5, 2 mM EDTA, 10 mM NaCl, 5 mM MgCl2, 5 mM sodium phosphate, 50 μM (−)-isoproterenol, 0.10 mM [γ-^32P]ATP (1-3 cpm/fmol) at 30° C. for 30 min. Synthetic β2AR peptides were varied in concentration from 0 to 2 mM. Reactions were quenched by the addition of SDS sample buffer followed by gel electrophoresis. In some experiments urea treated rod outer segments (Wilden et al (1982) Biochemistry 21:3014-3022; Shichi et al (1978) J. Biol. Chem. 253:7040-7046) were used as the substrate for βAR kinase. To further define the specificity of the peptide inhibition, phosvitin, casein (see Example I) and the synthetic peptides CT-2 and CT-3 were used as substrates for βAR kinase.
SDS polyacrylamide gel electrophoresis was performed by the method of Laemmli (Nature (1970) 227:[…]) using 10 or 15% homogeneous slab gels. SDS sample buffer contained 8% SDS, 10% glycerol, 5% β-mercaptoethanol, 25 mM Tris-HCl, pH 6.5 and 0.003% bromphenol blue. SDS urea polyacrylamide gel electrophoresis was carried out using 6.5 M urea, 0.1% SDS, 100 mM H3PO4, pH 6.8 with Tris-HCl and 9% acrylamide (Swank et al (1971) Anal. Biochem. 39:462). SDS urea sample buffer contained 1% SDS, 8M urea, 10 mM H3PO4, pH 6.8 with Tris-HCl, 1% β-mercaptoethanol and 0.003% bromphenol blue.

The target of assay [4] is T1, βAR kinase. Briefly: Phosphorylation of β2AR and synthetic β2AR peptides by βAR kinase (substrate kinetics). Type of assay: biochemical, bovine. As to conditions: for phosphorylation by βAR kinase: FIG. 10; for Ratio (Vmax/Km relative to β2AR + ISO): substrate of βAR kinase. On the procedure:
FIG. 11. Kinetic parameters of the βAR kinase for β2AR. Reconstituted β2AR (0.05-0.3 μM) was incubated for 15 min at 30° C. with purified βAR kinase (˜30 ng) in the presence (◯) or absence (●) of 50 μM (−)-isoproterenol. Reactions were stopped by the addition of SDS sample buffer before electrophoresis on a 10% SDS polyacrylamide gel. ^32P-labeled receptor was determined by cutting and counting the dried gel following […] autoradiography.
FIG. 12. Kinetic parameters of the βAR kinase for synthetic peptides CT-2 and CT-3. The synthetic β2AR peptides CT-2 (0.6-3.3 mM;Δ) and CT-3 (0.6-4.3 mM; ▴) were incubated for 60 min at 30° C. with purified βAR kinase (˜30 ng). Reactions were stopped by the addition of SDS urea sample buffer before electrophoresis on a 9% SDS urea polyacrylamide gel. ^32P-labeled peptide was determined by cutting and counting the gel following autoradiography.
as §1
Phosphorylation of βAR was accomplished by incubating reconstituted βAR (0.5-5 pmol/incubation) with βAR kinase (10-50 ng) in a buffer containing 20 mM Tris-HCl, pH 7.5, 2 mM EDTA, 10 mM NaCl, 5 mM MgCl2, 5 mM sodium phosphate, 0.5 mM ascorbic acid, 0.15 mM [γ-^32P]ATP (1-5 cpm/fmol) at 30° C. for the indicated time (see Figures indicated below and corresponding description). Some incubations also contained 50 μM (−)-isoproterenol. Incubations were stopped by the addition of 50 μl of SDS sample buffer followed by electrophoresis on 10% homogeneous polyacrylamide gels. Phosphorylated βAR was visualized by autoradiography and the corresponding bands were excised and counted to determine the pmol of phosphate incorporated.
Synthetic βAR peptides were phosphorylated as follows by βAR kinase. […] Following autoradiography the phosphorylated peptides were excised and counted to determine the amount of phosphate incorporated. […]

No end group written: not given here.

As usually defined, the inhibition is the relative decrease from the control value, in per cent. A higher inhibition goes with strong suppression. AKFERLQTVTN [β2AR-(59-69)] yielded an inhibition at 100 µM against βAR kinase [1] of 0%. For the same sequence, in assay [2], the “Inhibition of Desensitization, %” value is listed as 3 ± 12%.
What is called IC50 is the midpoint of a concentration-inhibition curve. On to “GYSSNSNGKTDYMGEASGCQLGQEKESER [CT-2 (353-381)]”, for which, at βAR kinase [3] (hamster β2AR peptides, ND = no significant inhibition at ˜500 μM, read-out: IC50 (μM), inhibition of β2AR phosphorylation by βAR kinase), the 50% inhibitory concentration (IC50) worked out at 142 µM. In addition, on βAR kinase [4], the “phosphorylation by βAR kinase” value is “are phosphorylated by βAR kinase” and the “Ratio (Vmax/Km relative to β2AR + ISO)” value is 2.3 × 10^−6.
As for “QGTVPSLSLDSQGRNCSTNDSPL [CT-3 (396-418)]”, the “inhibition of β2AR phosphorylation” value against βAR kinase [3] (tested at ˜0.5 mM) is on record as “do not inhibit”. Also, on βAR kinase [4], the “phosphorylation by βAR kinase” value is reported as “are phosphorylated by βAR kinase” and the “Ratio (Vmax/Km relative to β2AR + ISO)” value is given as 1.3 × 10^−6.

(Values after patent US6605424B1, “Method of detecting inhibitors of agonist-specific desensitization” (Duke University, priority 1989, dated 2003).)
